From PubChem BioAssay (NCI) come the findings set out here.

SMILES strings stand for the structures. Where “and” joins values, the source holds several entries; their conditions need not be identical. Equal entries are not always repeated.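 Growth conditions: 96-well plates. Treatment: test compound, 48 hours, 5 concentrations. Analysis: linear interpolation between bracketing concentrations; unreached endpoints set to highest concentration. At the GI50, growth is halved. TGI denotes the concentration required for complete inhibition of growth.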

Some test systems named below: RXF 393 renal; SW-620 colon; LXFL 529 NSCLC; SR leukemia; NCI-H23 lung; A549 NSCLC; HOP-92 NSCLC; NCI-H522 lung; SNB-78 CNS; T-47D breast.
Common to all, as to assay: NCI anticancer screen, dose series, 48 h

With `COc1cc(/C=C/c2ccc(Br)cc2)cc(OC)c1OC`, the TGI was 54.6 µM in the assay with RXF 393 renal; greater than 100 µM in the assay with SW-620 colon; greater than 100 µM with LXFL 529 NSCLC; greater than 100 µM in the assay with SR leukemia; greater than 81.2 µM in the assay on NCI-H23 lung; greater than 100 µM with A549 NSCLC. Besides, the TGI in the assay with HOP-92 NSCLC was 72.3 µM; with NCI-H522 lung it was 46.1 µM.
On to `COc1ccc(S(=O)(=O)N[C@H](C(=O)O)c2ccccc2)cc1`, for which the TGI in the assay with RXF 393 renal, in the assay with SW-620 colon, in the assay with LXFL 529 NSCLC, in the assay on NCI-H23 lung, with A549 NSCLC and in the assay on SNB-78 CNS was greater than 100 µM in each case.
`CCN(CC)CC(=O)NC1c2ccccc2Oc2c(C)cccc21` (configuration not stated): the TGI in the assay with RXF 393 renal, with SW-620 colon, in the assay with LXFL 529 NSCLC, with SR leukemia, with NCI-H23 lung and with A549 NSCLC was greater than 100 µM each time. In the assay on SNB-78 CNS, this compound came in with a TGI greater than 100 µM.
Consider `COc1ccc2c(c1)[n+](=O)c(C(=O)C/C(=N/NC(=O)C[N+](C)(C)C)C(=O)Nc1cccc(C)c1C)c(C)n2O`, for which the TGI with RXF 393 renal, in the assay on SW-620 colon, in the assay with LXFL 529 NSCLC, in the assay with NCI-H23 lung, with A549 NSCLC and with HOP-92 NSCLC was greater than 100 µM throughout. Moreover, the TGI with NCI-H522 lung and in the assay on SNB-78 CNS was greater than 100 µM each time.
As to `CC(=O)Nc1ccc(/C=C2\N=C(c3ccccc3)OC2=O)cc1`, the TGI in the assay with RXF 393 renal, in the assay on SW-620 colon, in the assay with LXFL 529 NSCLC, in the assay with NCI-H23 lung, in the assay with A549 NSCLC and with HOP-92 NSCLC was greater than 100 µM each time.
In the case of `COC1[C@H](NC(=O)OC(C)(C)C)C(=O)N1Cc1ccccc1` (some centres not stated), the TGI in the assay on RXF 393 renal, with SW-620 colon, with LXFL 529 NSCLC, in the assay with NCI-H23 lung, in the assay on A549 NSCLC and with HOP-92 NSCLC was greater than 100 µM throughout. Further, the TGI in the assay on SNB-78 CNS was greater than 100 µM.
As to `COc1ccc2nc3cc([N+](=O)[O-])ccc3c(NNc3ccccc3)c2c1`, the GI50 was 11.8 µM in the assay on RXF 393 renal; 10.1 µM with T-47D breast; 19.8 µM with SW-620 colon; 12.1 µM in the assay with NCI-H23 lung; 11.5 µM in the assay on HOP-92 NSCLC; 2.4 µM with NCI-H522 lung. Besides, the TGI was 27.6 µM and > 100 µM in the assay on RXF 393 renal; 35.7 µM and > 100 µM with T-47D breast; greater than 100 µM in the assay with SW-620 colon; 61.8 µM in the assay with SR leukemia; 28.1 µM and > 90.5 µM in the assay on NCI-H23 lung; 37.8 µM and > 100 µM in the assay on A549 NSCLC. The TGI is 28 µM and 47.4 µM in the assay with HOP-92 NSCLC; 18.5 µM and 50.9 µM with NCI-H522 lung.
Turning to `COc1cc(/C=C/C(=O)N2CCC=CC2=O)cc(OC)c1OC`, the GI50 with RXF 393 renal is 1.73 µM; with T-47D breast, 2.56 µM; in the assay on SW-620 colon it was 2.51 µM; with SR leukemia it was 1.75 µM; with NCI-H23 lung, 1.81 µM; with A549 NSCLC, 8.57 µM. The GI50 was 2.29 µM in the assay on HOP-92 NSCLC and 1.8 µM in the assay on NCI-H522 lung. In addition, the TGI in the assay on RXF 393 renal is 4.07 µM; in the assay with T-47D breast it was 8.51 µM; in the assay on SW-620 colon, 6.61 µM; in the assay with SR leukemia it was greater than 100 µM; in the assay with NCI-H23 lung it was 4.03 µM; in the assay on A549 NSCLC, 22.8 µM. Moreover, the values for the TGI in the assay with HOP-92 NSCLC and in the assay on NCI-H522 lung were 4.61 µM and 3.75 µM, respectively.
For the compound `O=C(/C=C/C(Cl)(Cl)Cl)Nc1ccc(Cl)cc1`, the TGI in the assay on RXF 393 renal is 6.62 µM; in the assay with T-47D breast, 7.84 µM; with SW-620 colon it was 14 µM; with SR leukemia, 3.25 µM; in the assay on NCI-H23 lung, 11.3 µM; in the assay on A549 NSCLC, 8.98 µM. The values for the TGI in the assay with HOP-92 NSCLC and with NCI-H522 lung were 4.08 µM and 1.43 µM, respectively.
For the compound `NC(Cc1c[nH]c2ccc(F)cc12)C(=O)O` (configuration not stated), the GI50 with RXF 393 renal is 887 µM; in the assay with T-47D breast, 1730 µM; in the assay with SW-620 colon, 1170 µM; in the assay on SR leukemia, 1200 µM; in the assay with NCI-H23 lung it was 1540 µM; in the assay with A549 NSCLC, 855 µM. Also, the GI50 with NCI-H522 lung is 1460 µM. Further, the TGI in the assay with RXF 393 renal, in the assay with T-47D breast, with SW-620 colon, with SR leukemia, in the assay with NCI-H23 lung and in the assay on A549 NSCLC was greater than 2500 µM each time. Besides, the TGI in the assay on HOP-92 NSCLC and in the assay on NCI-H522 lung was greater than 2500 µM in each case.
With `C[C@@H](NC(=O)c1ncnc(N)c1Cl)c1ncc(C(=O)Nc2cc(C(F)(F)F)c(Cl)cn2)s1`, the GI50 with RXF 393 renal is 24.2 µM; in the assay with T-47D breast it was 24.2 µM; with SW-620 colon, 11 µM; in the assay with SR leukemia it was 15.3 µM; in the assay with NCI-H23 lung it was 10.8 µM; in the assay on A549 NSCLC, 18 µM. Moreover, the figures for the GI50 with HOP-92 NSCLC and in the assay with NCI-H522 lung were 1.46 µM and 13.5 µM, respectively. In addition, the TGI was 68.7 µM in the assay on RXF 393 renal; greater than 83.8 µM in the assay with T-47D breast; greater than 75.5 µM in the assay on SW-620 colon; 64.5 µM in the assay on SR leukemia; 57.9 µM in the assay on NCI-H23 lung; 64.4 µM in the assay with A549 NSCLC. Besides, the TGI with HOP-92 NSCLC worked out at 9.44 µM; in the assay with NCI-H522 lung, 34.3 µM.
Regarding `C/C(=N/O)c1ccc2c(c1)/C(=N/O)c1ccccc1-2`, the GI50 with RXF 393 renal was 21.3 µM; in the assay on T-47D breast, 24 µM; in the assay with SW-620 colon, 19.3 µM; in the assay on SR leukemia it was 12.5 µM; in the assay with NCI-H23 lung, 18.3 µM; with A549 NSCLC it was 24 µM. For the same compound, the figures for the GI50 in the assay on HOP-92 NSCLC and with NCI-H522 lung were 27.8 µM and 17.9 µM, respectively. Moreover, the TGI amounted to 44.8 µM in the assay with RXF 393 renal; 52.7 µM with T-47D breast; 44.2 µM in the assay with SW-620 colon; 31.8 µM in the assay on SR leukemia; 34.2 µM with NCI-H23 lung; 62.9 µM in the assay with A549 NSCLC. Also, the TGI was 60 µM with HOP-92 NSCLC and 35.2 µM in the assay with NCI-H522 lung.
